Test results: patent US7772263B2, “Compounds for the treatment of inflammatory disorders” (Schering Corporation, priority 2006, dated 2010)

The compounds below were run against T1, purified catalytic domain of recombinant human TACE (rhTACEc) (Homo sapiens, UniProt P78536, N452Q/S266A) (assay: TACE kinetic assay, cleavage of internally quenched fluorescent peptide substrate SPDL-3). Conditions: TACE; class letters A-D; read-out: Ki Rating.
T1 construct: rhTACEc, Residue 215 to 477 with two mutation (S266A and N4520) and a 6×His tail; 6xHis (C); made in house; host or cells: baculovirus/Hi5 insect cells
T1 sequence (P78536 215-477 S266A/N452Q limits assumed): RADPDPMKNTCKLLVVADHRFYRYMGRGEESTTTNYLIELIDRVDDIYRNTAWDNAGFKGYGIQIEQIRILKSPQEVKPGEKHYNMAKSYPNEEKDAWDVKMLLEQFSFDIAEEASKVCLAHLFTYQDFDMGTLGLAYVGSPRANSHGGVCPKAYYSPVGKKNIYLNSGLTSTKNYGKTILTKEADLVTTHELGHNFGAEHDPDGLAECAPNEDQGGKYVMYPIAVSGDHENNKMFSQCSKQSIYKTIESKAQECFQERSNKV
Assay type: biochemical

`COc1ccc2c(c1)C(=O)N(C[C@@]1(C#Cc3ccc(-c4nnc(N)o4)nc3)NC(=O)NC1=O)C2` [Compound 1501] and `CCNc1nnc(-c2ccc(C#C[C@]3(CN4Cc5ccc(OC)cc5C4=O)NC(=O)NC3=O)cn2)o1` [Compound 1502] cannot be ordered by Ki: < 5 nM for the first, < 5 nM for the second.

`COc1ccc2c(c1)C(=O)N(C[C@@]1(C#Cc3cnc4ccccn34)NC(=O)NC1=O)C2` [Compound 1503] and `COc1ccc2c(c1)C(=O)N(C[C@@]1(C#Cc3cnc4ccc(Br)cn34)NC(=O)NC1=O)C2` [Compound 1504] cannot be ordered by Ki: < 5 nM for the first, < 5 nM for the second.

`COc1ccc2c(c1)C(=O)N(C[C@@]1(C#Cc3ccc4nc(C)cn4c3)NC(=O)NC1=O)C2` [Compound 1505] and `COc1ccc2c(c1)C(=O)N(C[C@@]1(C#Cc3ccc4nc(C(F)(F)F)cn4c3)NC(=O)NC1=O)C2` [Compound 1521] cannot be ordered by Ki: < 5 nM for the first, < 5 nM for the second.

`COc1ccc2c(c1)C(=O)N(C[C@@]1(C#Cc3n[nH]c4ccccc34)NC(=O)NC1=O)C2` [Compound 1506] and `COc1ccc2c(c1)C(=O)N(C[C@@]1(C#Cc3c4ccccc4nn3C)NC(=O)NC1=O)C2` [Compound 1508] cannot be ordered by Ki: < 5 nM for the first, < 5 nM for the second.

`COc1ccc2c(c1)C(=O)N(C[C@@]1(C#Cc3cc(F)ccn3)NC(=O)NC1=O)C2` [Compound 1507] and `COc1ccc2c(c1)C(=O)N(C[C@@]1(C#Cc3ccc(F)nc3)NC(=O)NC1=O)C2` [Compound 1563] cannot be ordered by Ki: < 5 nM for the first, < 5 nM for the second.

`COc1ccc2c(c1)C(=O)N(C[C@@]1(C#Cc3cc(C)ccc3O)NC(=O)NC1=O)C2` [Compound 1509] and `COc1ccc2c(c1)C(=O)N(C[C@@]1(C#Cc3ccc(C)nc3N)NC(=O)NC1=O)C2` [Compound 1559] cannot be ordered by Ki: < 5 nM for the first, < 5 nM for the second.

`COc1ccc2c(c1)C(=O)N(C[C@@]1(C#Cc3cnn4ccccc34)NC(=O)NC1=O)C2` [Compound 1510] and `COc1ccc2c(c1)C(=O)N(C[C@@]1(C#Cc3cnccc3C(N)=O)NC(=O)NC1=O)C2` [Compound 1515] cannot be ordered by Ki: < 5 nM for the first, < 5 nM for the second.

`COC(=O)c1cc(C#C[C@]2(CN3Cc4ccc(OC)cc4C3=O)NC(=O)NC2=O)ccn1` [Compound 1511] and `COc1ccc2c(c1)C(=O)N(C[C@@]1(C#Cc3ccnc(C(N)=O)c3)NC(=O)NC1=O)C2` [Compound 1512] cannot be ordered by Ki: < 5 nM for the first, < 5 nM for the second.

`COc1ccc2c(c1)C(=O)N(C[C@@]1(C#Cc3ccc(C(N)=O)nc3)NC(=O)NC1=O)C2` [Compound 1513] and `COC(=O)c1ccc(C#C[C@]2(CN3Cc4ccc(OC)cc4C3=O)NC(=O)NC2=O)cn1` [Compound 1514] cannot be ordered by Ki: < 5 nM for the first, < 5 nM for the second.

`COC(=O)c1ccncc1C#C[C@]1(CN2Cc3ccc(OC)cc3C2=O)NC(=O)NC1=O` [Compound 1516] and `COc1ccc2c(c1)C(=O)N(C[C@@]1(C#Cc3cncnc3N)NC(=O)NC1=O)C2` [Compound 1561] cannot be ordered by Ki: < 5 nM for the first, < 5 nM for the second.

`CNC(=O)c1ccc(C#C[C@]2(CN3Cc4ccc(OC)cc4C3=O)NC(=O)NC2=O)cn1` [Compound 1517] and `COc1ccc2c(c1)C(=O)N(C[C@@]1(C#Cc3ccc(C(=O)NC4CC4)nc3)NC(=O)NC1=O)C2` [Compound 1518] cannot be ordered by Ki: < 5 nM for the first, < 5 nM for the second.

`COc1ccc2c(c1)C(=O)N(C[C@@]1(C#Cc3cc(C)c(=O)n(C)c3)NC(=O)NC1=O)C2` [Compound 1519] and `COc1ccc2c(c1)C(=O)N(C[C@@]1(C#Cc3c[nH]c(=O)c(C)c3)NC(=O)NC1=O)C2` [Compound 1524] cannot be ordered by Ki: < 5 nM for the first, < 5 nM for the second.

`COc1ccc2c(c1)C(=O)N(C[C@@]1(C#Cc3ccc4nnn(C)c4c3)NC(=O)NC1=O)C2` [Compound 1520] and `COc1ccc2c(c1)C(=O)N(C[C@@]1(C#Cc3ccc4[nH]nnc4c3)NC(=O)NC1=O)C2` [Compound 1522] cannot be ordered by Ki: < 5 nM for the first, < 5 nM for the second.

`COc1ccc2c(c1)C(=O)N(C[C@@]1(C#Cc3ccc4[nH]ncc4c3)NC(=O)NC1=O)C2` [Compound 1523] and `COc1ccc2c(c1)C(=O)N(C[C@@]1(C#Cc3ccc4oc(=O)[nH]c4c3)NC(=O)NC1=O)C2` [Compound 1560] cannot be ordered by Ki: < 5 nM for the first, < 5 nM for the second.

`CC#CCOc1ccc2c(c1)C(=O)N(C[C@@]1(C#Cc3ccc4cn(C)nc4c3)NC(=O)NC1=O)C2` [Compound 1533] and `COc1ccc2c(c1)C(=O)N(C[C@@]1(C#Cc3cnc(Cl)c(O)c3)NC(=O)NC1=O)C2` [Compound 1571] cannot be ordered by Ki: < 5 nM for the first, < 5 nM for the second.

Compared with `Cc1cc(COc2ccc3c(c2)C(=O)N(C[C@@]2(C#Cc4cccnc4)NC(=O)NC2=O)C3)c2ccccc2n1` [Compound 1534], `COc1ccc2c(c1)C(=O)N(CC1(C#Cc3cccnc3)NC(=O)NC1=O)CC2` (stereo not shown) [Compound 1558] is higher in Ki: < 5 nM for the first, 5 to 25 nM for the second.

First: O=C1NC(=O)C(C#Cc2cnc3ccc(Br)cn23)(CN2Cc3ccc(OC(F)F)cc3C2=O)N1 (stereo not shown) [Compound 1535]
Second: COc1ccc2c(c1)C(=O)N(C[C@@]1(C#Cc3cnc(O)nc3N)NC(=O)NC1=O)C2 [Compound 1567]
The Ki of the first is higher: 5 to 25 nM for the first, < 5 nM for the second.

Compared with `COc1ccc2c(c1)C(=O)N(C[C@@]1(C#Cc3ccc(C(=O)NS(C)(=O)=O)cc3)NC(=O)NC1=O)C2` [Compound 1550], `CCS(=O)(=O)NC(=O)c1ccc(C#C[C@]2(CN3Cc4ccc(OC)cc4C3=O)NC(=O)NC2=O)cc1` [Compound 1551] is lower in Ki: 5 to 25 nM for the first, < 5 nM for the second.

`COc1ccc2c(c1)C(=O)N(C[C@@]1(C#Cc3cncc(C(C)=NO)c3)NC(=O)NC1=O)C2` [Compound 1552] and `COc1ccc2c(c1)C(=O)N(C[C@@]1(C#Cc3ccc(CC(C)=NO)cc3)NC(=O)NC1=O)C2` [Compound 1553] cannot be ordered by Ki: < 5 nM for the first, < 5 nM for the second.

`COc1ccc2c(c1)C(=O)N(C[C@@]1(C#Cc3ccc4c(C=NO)c[nH]c4c3)NC(=O)NC1=O)C2` [Compound 1554] and `COc1ccc2c(c1)C(=O)N(C[C@@]1(C#Cc3ccc4[nH]c(=O)[nH]c(=O)c4c3)NC(=O)NC1=O)C2` [Compound 1566] cannot be ordered by Ki: < 5 nM for the first, < 5 nM for the second.

`COc1ccc2c(c1)C(=O)N(C[C@@]1(C#Cc3ccc(C4(C)NC(=O)N(C)C4=O)cc3)NC(=O)NC1=O)C2` (stereo partly shown) [Compound 1555] and `COc1ccc2c(c1)C(=O)N(C[C@@]1(C#Cc3ccc(C4(CN)NC(=O)NC4=O)cc3)NC(=O)NC1=O)C2` (stereo partly shown) [Compound 1562] cannot be ordered by Ki: < 5 nM for the first, < 5 nM for the second.

`COc1ccc2c(c1)C(=O)N(C[C@@]1(C#Cc3cccc(C4(C)NC(=O)NC4=O)c3)NC(=O)NC1=O)C2` (stereo partly shown) [Compound 1556] and `COc1ccc2c(c1)C(=O)N(C[C@@]1(C#Cc3ccc4c(c3)C(=O)C(=O)N4)NC(=O)NC1=O)C2` [Compound 1557] cannot be ordered by Ki: < 5 nM for the first, < 5 nM for the second.

First: COc1ccc2c(c1Br)C(=O)N(CC1(C#Cc3cccnc3)NC(=O)NC1=O)C2 (stereo not shown) [Compound 1564]
Second: COc1ccc2c(c1)C(=O)N(C[C@@]1(C#Cc3cnc4c(c3)CCC(=O)N4)NC(=O)NC1=O)C2 [Compound 1568]
The Ki of the first is higher: 5 to 25 nM for the first, < 5 nM for the second.

`CON=C(C)c1ccc(C#C[C@]2(CN3Cc4ccc(OC)cc4C3=O)NC(=O)NC2=O)cc1` [Compound 1565] and `COc1ccc2c(c1)C(=O)N(C[C@@]1(C#Cc3ccc(C(=O)NS(=O)(=O)C4CC4)cc3)NC(=O)NC1=O)C2` [Compound 1570] cannot be ordered by Ki: < 5 nM for the first, < 5 nM for the second.

`COc1ccc2c(c1)C(=O)N(C[C@@]1(C#Cc3cc4ccccc4[nH]c3=O)NC(=O)NC1=O)C2` [Compound 1569] and `COc1ccc2c(c1)C(=O)N(C[C@@]1(C#Cc3cnc(Cl)nc3N)NC(=O)NC1=O)C2` [Compound 1573] cannot be ordered by Ki: < 5 nM for the first, < 5 nM for the second.

With `COc1ccc2c(c1)C(=O)N(C[C@@]1(C#Cc3cnc(N4CCSCC4)nc3N)NC(=O)NC1=O)C2` [Compound 1572] the Ki was < 5 nM.

Same assay, conditions: rhTACEc 70 pM, 30 μM SPDL-3, 90 min pre-incubation at 25° C.; read-out: Ki (nM), TACE inhibitory activity

With `CCNc1nnc(-c2ccc(C#C[C@]3(CN4Cc5ccc(OC)cc5C4=O)NC(=O)NC3=O)cn2)o1` [Compound 1502] the Ki was 0.094 nM.
